Measured values: patent US8414885B2, “Methods and compositions for treating cancer” (priority 2009, dated 2013)
Peptide text beside a SMILES is read from it. * marks the point of attachment. Cbz = O=C(OCc1ccccc1)*; CH2F = FC*

Legend:
A2058 cells = test: EtHD cell death with or without protease inhibitors, A2058; assay type: cell-based, human; settings: A2058, delta-PK moi=0.5, 72 hrs p.i.; PD150606 100 μM or z-VAD-fmk 20 μM
Experimental: FIG. 7. Delta-PK induced melanoma cell death is both calpain and caspase-dependent. A. A2058 cells were infected with delta-PK (moi=0.5) or mock-infected with PBS and cultured without or with PD150606 (100 μM), z-VAD-fmk (20 µM) or both PD150606 and z-VAD-fmk. DMSO (28 mM) was used as vehicle control. Replicate cultures (n=3) were stained with EtHD at various times p.i. and the % staining cells calculated. B. A375 cells were infected with delta-PK (moi=0.5) in the absence or presence of inhibitors and stained with EtHD+. Delta-PK infected WI-38 cells and mock infected DMSO treated cells served as controls.
Cell death was determined by trypan blue exclusion and staining with ethidium homodimer-1 (EtHD), a cell impermeable red fluorescent nuclear stain that increases intensity after binding to the DNA of dead cells. […] Dead cells were counted by four independent hemacytometer counts. […] Stained cells were counted in five randomly selected 3 mm^2 fields (≧250 cells each), and the % positive cells was calculated relative to total number of cells imaged by phase contrast microscopy (Gober M D, Laing J M, Thompson S M, Aurelian L. The growth compromised HSV-2 mutant DeltaRR prevents kainic acid-induced apoptosis and loss of function in organotypic hippocampal cultures. Brain Res 2006; 1119: 26-39). […]

[1] = test system: melanoma cultures (A2058, MeWo, SM, A375); test: Virus growth by plaque assay (burst size) in melanoma cultures; assay type: cell-based, human; settings: delta-PK infected melanoma cultures
Experimental: FIG. 3. Delta-PK is a growth-restricted replication competent oncolytic virus. A. Vero cells were infected with HSV-2, delta-PK, or HSV-2(R) (moi=0.5) in serum-free medium and virus titers were determined by plaque assay. Results are expressed as mean pfu/cell (burst size). B. A2058, MeWo, SM, A375 and Wi-38 cells were infected with delta PK and examined for virus growth. […] C. Delta-PK infected A2058 and WI-38, cells were stained with Alexafluor-488 labeled ICP10 and Alexafluor-594 labeled VP5 antibodies in double immunofluorescence. Cells were counted in 3 randomly selected fields (≧250 cells) and the % staining cells calculated relative to total cells identified by DAPI staining. Quantitative results are shown for A2058 cell at 4-72 hrs p.i., and for WI-38 cells at 48 hrs p.i. Similar results were obtained for the partially purified virus.
To measure virus replication in culture, cells were infected at a multiplicity of infection (moi) of 0.5 pfu/cell. Adsorption was for 1 hr at 4 degrees C. (synchronized infection). […] Virus titers were determined by plaque assay on Vero cells and the results are expressed as mean pfu/cell (burst size), as described (Li B, Smith C C, Laing J M, Gober M D, Liu L, Aurelian L. Overload of the heat-shock protein H11/HspB8 triggers melanoma cell apoptosis through activation of transforming growth factor-beta-activated kinase 1. Oncogene 2007; 26: 3521-3531). […]

| Structure (SMILES) | % EtHD+ cells in delta-PK infected cultures in presence of inhibitor (A2058 cells) | effect of inhibitor on virus growth [1] |
| --- | --- | --- |
| O=C(O)/C(S)=C/c1ccc(I)cc1 [PD150606] | 30.7+/−2.8% | neither PD150606, nor z-VAD-fmk had any effect |
| COC(=O)C[C@H](NC(=O)[C@H](C)NC(=O)[C@@H](NC(=O)OCc1ccccc1)C(C)C)C(=O)CF [z-VAD-fmk, benzyloxcarbonyl-Val-Ala-Asp-fluormethyl ketone] (Cbz-Val-Ala-Asp(OMe)-CH2F) | 35.8+/−2.5% | neither PD150606, nor z-VAD-fmk had any effect |
